{
  "source": "paper PMC6895199",
  "about": "“A new antiviral scaffold for human norovirus identified with computer-aided approaches on the viral polymerase” (Scientific Reports, 2019)",
  "key": {"HuNoV (GII.4) RdRp [1]": {"test_system": "HuNoV (GII.4) RdRp", "experiment": "Counter-screen gel-shift assay of primed elongation activity (PE44-NoV template)", "format": "biochemical, human norovirus", "details": "fixed concentration of 100 μM", "description": "To further confirm RdRp inhibition and exclude any potential false positives from the first fluorescence RdRp assay, the eight molecules were then assessed using a gel-shift enzyme activity assay at a fixed concentration of 100 μM, following a procedure previously adopted by our research group.\nFigure 5 A counter-screen gel-shift assay was used to confirm HuNoV (GII.4) RdRp inhibitory activity of compounds 2, 3, 34 and 35 (A), 4, 5, 6 (B) and 7 (C). The eight compounds were examined for inhibition of primed elongation activity. PE44-NoV RNA templates (32 nucleotides) were extended (44 nucleotides) by the RdRp in the absence of any test compounds (0.5% DMSO [vol/vol] negative control) or with test compounds at a fixed concentration of 100 μM. […] Full-length gels are presented in Supplementary Fig. S3.\n(§1) Fluorescent RdRp activity assays were carried out as previously described[12],[29]. Briefly, RdRp activity was quantified by monitoring the formation of double-stranded RNA (dsRNA) from a single stranded homopolymeric template, poly(C) (Sigma Aldrich), using the fluorescent dye PicoGreen (Life Technologies, Carlsbad, CA, USA). RdRp assays were performed in 384-well plates, and each reaction mixture contained 400 ng enzyme, 45 μM GTP, 10 ng/μL poly(C) RNA, 2.5 mM MnCl2, 5 mM dithiothreitol, (DTT), 0.01% bovine serum albumin (BSA), and 0.005% Tween 20 in 20 mM Tris-HCl, pH 7.5, with a final reaction volume of 25 μL. The PPNDS and compound 1 were used as a positive controls. RdRps were incubated for 10 mins at 30 °C in the presence of the test compounds or the compound vehicle DMSO (0.5% vol/vol) before addition into the reaction mixture, which was then allowed to run 15 min at 30 °C then terminated with 10 mM EDTA, followed by PicoGreen staining and dsRNA quantitation. GraphPad Prism V6.05 (La Jolla, CA, USA) was used to plot the IC50 values. A secondary gel-based polymerase activity assay was used as a counter-screen as described below, to exclude the possibility of RdRp activity enhancement. Primed elongation activity was examined in a gel-based assay as previously described[12],[29] using the RNA template (PE44-NoV). Gels were imaged using BioRad (Hercules, CA, U.SA) Geldoc Universal Hood II, running BioRad Image Lab software, V4.1, build 16."}, "MNV": {"test_system": "MNV", "experiment": "MNV CPE reduction assay (MTS) in RAW 264.7 cells", "format": "cell-based, mouse norovirus (MNV-1.CW1)", "details": "Norovirus, RAW264.7, in Mus musculus", "description": "The newly prepared compounds 2–7 and 34–35 were evaluated for their antiviral effect against the genogroup V mouse norovirus (MNV) using the mouse macrophage cell line RAW264.7. This assay evaluates the ability of the compounds to protect infected cells from the virus-induced cytopathic effect, thus being suitable to identify inhibition of virus replication at every step of the virus life cycle, and representing a robust cellular assay available for the rapid evaluation of potential norovirus inhibitors. Compounds identified using MNV have shown effects against HuNoV in vitro and in vivo, as in the case of nucleoside RdRp inhibitor 2′-C-methylcytidine (2CMC)[34]–[36]. Unfortunately, despite not presenting the aqueous solubility issues we had previously encountered for 1[29], no significant antiviral effect could be observed in this assay for the new compounds up to the maximum concentration tested. The new structural modifications, despite retaining inhibition of the RdRp in an isolated enzyme activity assay and showing no cytotoxic effects at the test concentrations in the MNV antiviral assay (Supplementary Table S1), are correlated with a lack of antiviral activity. As these new structures present the same limitation of most non-nucleoside HuNoV polymerase inhibitors reported so far[22], we were prompted to apply a different computer-aided strategy to further modify the scaffold of 1, with the aim to achieve an antiviral effect in cellular systems. […]\nSince the main scope of this work was to find new norovirus inhibitors which show antiviral effects against both the HuNoV RdRp and in norovirus-infected cells, priority was given to the evaluation of most of the new molecules for their antiviral activity against MNV in infected RAW cells. The nucleoside 2′-C-methylcytidine was used as positive control. The test compounds were evaluated at eight different concentrations (range 0.6–100 µM) and their ability to reduce the virus-induced cytopathic effect was assessed.\nCells and virus: MNV (virus strain MNV-1.CW1) was propagated in RAW 264.7 cells grown in DMEM (Life Technologies, Gent, Belgium) supplemented with 10% or 2% FBS, 2 mM L-glutamine, 20 mM HEPES, 0.075 g/L sodium bicarbonate, 1 mM sodium pyruvate, 100 U penicillin/mL and 100 µg/mL streptomycin at 37 °C in a humidified atmosphere of 5% CO2. The human norovirus GI.1 replicon harboring gastric tumor-1 cell line (HGT-NV) (kindly provided by Dr. Ian Goodfellow, University of Cambridge) was maintained in DMEM supplemented with 10% FBS, 2mM L-glutamine, 0.075 g/L sodium bicarbonate and 1.0 mg/ml of Geneticin (G418; Life Technologies), at 37 °C in a humidified atmosphere of 5% CO2[34].\nAntiviral assay with MNV: The antiviral activity of the Compounds was determined using an MTS [3-(4,5-dimethylthiazol-2-yl)-5-(3-carboxymethoxyphenyl)-2-(4-sulfophenyl)-2H-tetrazolium]-based cytopathic effect (CPE) reduction assay. […] Then, a MTS-phenazinemethosulfate (MTS/PMS) stock solution [(2 mg/mL MTS (Promega, Leiden, The Netherlands) and 46 µg/mL PMS (Sigma–Aldrich, Bornem, Belgium) in PBS at pH 6–6.5)] was diluted 1/20 in MEM (Life Technologies, Gent, Belgium) and 75 µL were added to each well. After 2 h, the optical density (OD) was read at 498 nm. The %CPE reduction was calculated as [(ODtreated)MNV − ODVC]/[ODCC − ODVC] × 100, where ODCC represents the OD of the uninfected untreated cells, whereas ODVC and (ODtreated)MNV represent the OD of infected untreated cells and virus-infected cells treated with a compound concentration, respectively. The 50% effective concentration (EC50) was defined as the compound concentration that protected 50% of the cells from virus-induced CPE[34]."}, "HuNoV (GII.4) RdRp [2]": {"biological_target": "HuNoV (GII.4) RdRp (Norovirus Hu/GII.4/Sydney/NSW0514/2012/AU, UniProt K4L8Z7)", "experiment": "Quantitative fluorescent RdRp activity assay (PicoGreen, poly(C) template)", "format": "biochemical, human norovirus Sydney 2012", "description": "The newly synthesised compounds, including the carboxylate ester derivatives 34–35 and 7 from the Core Hopping approach, were evaluated for their enzymatic inhibition of human norovirus Sydney 2012 (HuNoV (GII.4)) RdRp activity in vitro, using a quantitative fluorescent assay. Compounds were tested at six different concentrations (concentration range examined: 0.1–100 µM) and compared to the relative activity of mock treated samples containing the vehicle only (0.5% DMSO [vol/vol]). PPNDS [Pyridoxal-5′-phosphate-6-(2′-naphthylazo-6′-nitro-4′,8′-disulfonate) tetrasodium salt], a previously reported potent inhibitor of NoV RdRp activity, and 1 were used as positive controls. Dose-dependent inhibitory response curves were used to establish IC50 values for the eight test compounds, as reported in Table 1 (see also Supplementary Fig. S1).\nThe newly prepared compounds 48–60 were initially evaluated against norovirus Sydney 2012 RdRp activity in vitro using a quantitative fluorescent assay. Compounds were tested at a fixed concentration of 20 µM and compared to the relative activity of mock treated samples. PPNDS and 1 were used as positive controls. […] These two rings are structural features present in 1 and in one of its derivatives we have previously reported. […] From these observations, the thiophene ring appears not to influence inhibitory activity. Derivatives in which the central core of 48 has been used to link the two terminal hydrophobic rings of 1 or of its derivatives we have previously reported[25] (55, 57, 58) appear to retain the RdRp inhibitory activity found for 48 (~20% at 20 µM). A similar effect is obtained when a sulfonyl group, as in our hit 1, is used to link ring 2, regardless if it is a thiazole (59) or an unsubstituted phenyl ring (60), to the rest of the molecule. […] Overall, even if showing a reduced biochemical activity in comparison with 1, some of the new derivatives can be considered as modest HuNoV RdRp inhibitors at 20 µM.\nas §1"}, "[3]": {"experiment": "Cytotoxicity by the MTS method on uninfected cells", "format": "cell-based", "details": "mouse, uninfected RAW 264.7 cells", "description": "Cytotoxicity: The cytotoxicity of the Compounds was evaluated by the MTS method, by exposing uninfected cells to the same concentrations of compounds for 3 days. The %cell viability was calculated as (ODtreated/ODCC) × 100, where ODCC is the OD of uninfected untreated cells and ODtreated are uninfected cells treated with compound. The CC50 was defined as the compound concentration that reduces the number of viable cells by 50%[34]."}, "[4]": {"experiment": "Crystal formation seen in the cell-based assays", "format": "physicochemical", "details": "MNV CPE reduction assay, Supplementary Table S1"}, "[5]": {"details": "Supplementary Table S1, at least two independent experiments"}},
  "data": [
    {"smiles": "O=C(NC(=S)Nc1ccc(N2CCN(C(=O)c3ccco3)CC2)cc1)c1sc2ccccc2c1Cl", "note": "[Compound 53, 3-Chloro-N-((4-(4-(furan-2-carbonyl)piperazin-1-yl)phenyl)carbamothioyl)benzo[b]thiophene-2-carboxamide]", "values": [
      {"measurement": "inhibition of primed elongation activity (gel-shift)", "setting": "HuNoV (GII.4) RdRp [1]", "result": "significant inhibition"},
      {"measurement": "EC50", "setting": "MNV; Table 2, RAW 264.7, range 0.6–100 µM, at least three independent experiments", "result": "> 100", "unit": "µM"},
      {"measurement": "inhibition at 20 µM", "setting": "HuNoV (GII.4) RdRp [2]; 20 µM, read-out: inhibition of HuNoV RdRp activity at fixed concentration", "result": "≤ 60", "unit": "%"},
      {"measurement": "CC50 at 3 days", "setting": "[3]; Table 2, at least three independent experiments", "result": "9.4 ± 2.3", "unit": "µM"}
    ]},
    {"smiles": "O=C(Cc1cccc(-c2ccccc2)c1)Nc1ccc(S(=O)(=O)Nc2ccccc2)cc1", "note": "[Compound 7, 2-([1,1′-biphenyl]-3-yl)-N-(4-(N-phenylsulfamoyl)phenyl)acetamide]", "values": [
      {"measurement": "inhibition of primed elongation activity (gel-shift)", "setting": "HuNoV (GII.4) RdRp [1]", "result": "did not demonstrate inhibition"},
      {"measurement": "EC50", "setting": "MNV; [5]", "result": "> 12.5", "unit": "µM"},
      {"measurement": "inhibition at 100 µM", "setting": "HuNoV (GII.4) RdRp [2]; 100 µM, read-out: inhibition of RdRp activity at the maximum concentration tested", "result": 20, "unit": "%"},
      {"measurement": "CC50 at 3 days", "setting": "[3]; [5]", "result": "20 ± 21", "unit": "µM"}
    ]},
    {"smiles": "CCOC(=O)c1ccc(N2NC(=O)/C(=C\\c3ccc(-c4ccc(S(=O)(=O)Nc5ccccc5)cc4)o3)C2=O)cc1", "note": "[Compound 34, Ethyl(E)-4-(3,5-dioxo-4-((5-(4-(N-phenylsulfamoyl)phenyl)furan-2-yl)methylene)pyrazolidin-1-yl)benzoate]", "values": [
      {"measurement": "EC50", "setting": "MNV; [5]", "result": "> 100", "unit": "µM"},
      {"measurement": "IC50", "setting": "HuNoV (GII.4) RdRp [2]; HuNoV (GII.4) RdRp activity, six concentrations 0.1–100 µM, mean ± SD", "result": "13.5 ± 5.8", "unit": "µM"},
      {"measurement": "CC50 at 3 days", "setting": "[3]; [5]", "result": "> 100", "unit": "µM"},
      {"measurement": "crystals noted in the assay", "setting": "[4]", "result": "crystals"}
    ]}
  ]
}
